Source: PubChem BioAssay (NCI)
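Compound exposure: 48 hours, 5 concentrations, 96-well plates. GI50: concentration for 50% inhibition of growth. TGI is the concentration that stops growth completely.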

Key:
Experiment in all cases: growth of human tumour cells (NCI), 48 h
ACHN renal = system: ACHN renal
M14 melanoma = system: M14 melanoma
K-562 leukemia = system: K-562 leukemia
MDA-MB-435 = system: MDA-MB-435
RPMI-8226 leukemia = system: RPMI-8226 leukemia
SF-268 CNS = system: SF-268 CNS
CAKI-1 renal = system: CAKI-1 renal
UACC-62 melanoma = system: UACC-62 melanoma
SW-620 colon = system: SW-620 colon
SK-MEL-2 melanoma = system: SK-MEL-2 melanoma
PC-3 prostate = system: PC-3 prostate
HOP-62 NSCLC = system: HOP-62 NSCLC
EKVX NSCLC = system: EKVX NSCLC
LOX IMVI melanoma = system: LOX IMVI melanoma
BT-549 breast = system: BT-549 breast
HL-60(TB) leukemia = system: HL-60(TB) leukemia
U251 CNS = system: U251 CNS
NCI/ADR-RES ovarian = system: NCI/ADR-RES ovarian
CCRF-CEM leukemia = system: CCRF-CEM leukemia
SNB-75 CNS = system: SNB-75 CNS
OVCAR-8 ovarian = system: OVCAR-8 ovarian
MCF7 breast = system: MCF7 breast
SNB-19 CNS = system: SNB-19 CNS
OVCAR-4 ovarian = system: OVCAR-4 ovarian
SR leukemia = system: SR leukemia
SN12C renal = system: SN12C renal
TK-10 renal = system: TK-10 renal
UACC-257 melanoma = system: UACC-257 melanoma
SF-539 CNS = system: SF-539 CNS
HCC-2998 colon = system: HCC-2998 colon
NCI-H460 lung = system: NCI-H460 lung
HCT-15 colon = system: HCT-15 colon
UO-31 renal = system: UO-31 renal
NCI-H226 lung = system: NCI-H226 lung
DU-145 prostate = system: DU-145 prostate
SK-MEL-5 melanoma = system: SK-MEL-5 melanoma
HS 578T breast = system: HS 578T breast
RXF 393 renal = system: RXF 393 renal
NCI-H522 lung = system: NCI-H522 lung
MALME-3M melanoma = system: MALME-3M melanoma
SK-MEL-28 melanoma = system: SK-MEL-28 melanoma
A549 NSCLC = system: A549 NSCLC
T-47D breast = system: T-47D breast
OVCAR-3 ovarian = system: OVCAR-3 ovarian
MOLT-4 leukemia = system: MOLT-4 leukemia
NCI-H23 lung = system: NCI-H23 lung
HOP-92 NSCLC = system: HOP-92 NSCLC
COLO 205 colon = system: COLO 205 colon
SK-OV-3 ovarian = system: SK-OV-3 ovarian
HCT-116 colon = system: HCT-116 colon
786-0 renal = system: 786-0 renal
IGROV1 ovarian = system: IGROV1 ovarian
SF-295 CNS = system: SF-295 CNS
OVCAR-5 ovarian = system: OVCAR-5 ovarian
KM12 colon = system: KM12 colon
A498 renal = system: A498 renal
MDA-MB-231 breast = system: MDA-MB-231 breast

O=C(/C(Br)=C/c1ccccc1)c1ccccc1
GI50 (ACHN renal): 1.22 µM | TGI (ACHN renal): 2.48 µM | GI50 (M14 melanoma): 1.36 µM | TGI (M14 melanoma): 3.23 µM | GI50 (K-562 leukemia): 2.23 µM | TGI (K-562 leukemia): 9.28 µM | GI50 (MDA-MB-435): 1.96 µM | TGI (MDA-MB-435): 4.67 µM | GI50 (RPMI-8226 leukemia): 2.41 µM | TGI (RPMI-8226 leukemia): 7.07 µM | GI50 (SF-268 CNS): 4.56 µM | TGI (SF-268 CNS): 16.7 µM | GI50 (CAKI-1 renal): 1.34 µM | TGI (CAKI-1 renal): 3.39 µM | GI50 (UACC-62 melanoma): 1.94 µM | TGI (UACC-62 melanoma): 3.81 µM | GI50 (SW-620 colon): 1.63 µM | TGI (SW-620 colon): 3.9 µM | GI50 (SK-MEL-2 melanoma): 3.17 µM | TGI (SK-MEL-2 melanoma): 7.38 µM | GI50 (PC-3 prostate): 3.11 µM | TGI (PC-3 prostate): 10.5 µM | GI50 (HOP-62 NSCLC): 2.29 µM | TGI (HOP-62 NSCLC): 6.1 µM | GI50 (EKVX NSCLC): 10.6 µM | TGI (EKVX NSCLC): 23.3 µM | GI50 (LOX IMVI melanoma): 0.433 µM | TGI (LOX IMVI melanoma): 1.59 µM | GI50 (BT-549 breast): 2.08 µM | TGI (BT-549 breast): 4.6 µM | GI50 (HL-60(TB) leukemia): 2.22 µM | TGI (HL-60(TB) leukemia): 6.47 µM | GI50 (U251 CNS): 1.83 µM | TGI (U251 CNS): 4.4 µM | GI50 (NCI/ADR-RES ovarian): 2.24 µM | TGI (NCI/ADR-RES ovarian): 6.48 µM | GI50 (CCRF-CEM leukemia): 0.39 µM | TGI (CCRF-CEM leukemia): 2.01 µM | GI50 (SNB-75 CNS): 10.6 µM | TGI (SNB-75 CNS): 24.2 µM | GI50 (OVCAR-8 ovarian): 2.75 µM | TGI (OVCAR-8 ovarian): 10.2 µM | GI50 (MCF7 breast): 4.79 µM | TGI (MCF7 breast): 52.9 µM | GI50 (SNB-19 CNS): 13.1 µM | TGI (SNB-19 CNS): 26.1 µM | GI50 (OVCAR-4 ovarian): 3.79 µM | TGI (OVCAR-4 ovarian): 16.9 µM | GI50 (SR leukemia): 1.41 µM | TGI (SR leukemia): 8.74 µM | GI50 (SN12C renal): 2.34 µM | TGI (SN12C renal): 5.85 µM | GI50 (TK-10 renal): 3.38 µM | TGI (TK-10 renal): 14.6 µM | GI50 (UACC-257 melanoma): 1.86 µM | TGI (UACC-257 melanoma): 4.49 µM | GI50 (SF-539 CNS): 2.12 µM | TGI (SF-539 CNS): 4.72 µM | GI50 (HCC-2998 colon): 6.8 µM | TGI (HCC-2998 colon): 19 µM | GI50 (NCI-H460 lung): 17.8 µM | TGI (NCI-H460 lung): 38 µM | GI50 (HCT-15 colon): 1.02 µM | TGI (HCT-15 colon): 2.47 µM | GI50 (UO-31 renal): 1.36 µM | TGI (UO-31 renal): 3.35 µM | GI50 (NCI-H226 lung): 3.5 µM | TGI (NCI-H226 lung): 14.1 µM | GI50 (DU-145 prostate): 1.77 µM | TGI (DU-145 prostate): 3.95 µM | GI50 (SK-MEL-5 melanoma): 4.96 µM | TGI (SK-MEL-5 melanoma): 17.3 µM | GI50 (HS 578T breast): 8.12 µM | TGI (HS 578T breast): 52.4 µM | GI50 (RXF 393 renal): 1.43 µM | TGI (RXF 393 renal): 2.85 µM | GI50 (NCI-H522 lung): 0.396 µM | TGI (NCI-H522 lung): 2.23 µM | GI50 (MALME-3M melanoma): 1.75 µM | TGI (MALME-3M melanoma): 3.9 µM | GI50 (SK-MEL-28 melanoma): 5.31 µM | TGI (SK-MEL-28 melanoma): 23.1 µM | GI50 (A549 NSCLC): 14.2 µM | TGI (A549 NSCLC): 28.5 µM | GI50 (T-47D breast): 1.82 µM | TGI (T-47D breast): 4.71 µM | GI50 (OVCAR-3 ovarian): 2.2 µM | TGI (OVCAR-3 ovarian): 5.59 µM | GI50 (MOLT-4 leukemia): 2.23 µM | TGI (MOLT-4 leukemia): 6.95 µM | GI50 (NCI-H23 lung): 2.71 µM | TGI (NCI-H23 lung): 8.38 µM | GI50 (HOP-92 NSCLC): 1.87 µM | TGI (HOP-92 NSCLC): 4.28 µM | GI50 (COLO 205 colon): 1.09 µM | TGI (COLO 205 colon): 2.41 µM | GI50 (SK-OV-3 ovarian): 16 µM | TGI (SK-OV-3 ovarian): 34.6 µM | GI50 (HCT-116 colon): 1.64 µM | TGI (HCT-116 colon): 3.12 µM | GI50 (786-0 renal): 1.9 µM | TGI (786-0 renal): 3.48 µM | GI50 (IGROV1 ovarian): 1.66 µM | TGI (IGROV1 ovarian): 4.68 µM | GI50 (SF-295 CNS): 11.8 µM | TGI (SF-295 CNS): 25.9 µM | GI50 (OVCAR-5 ovarian): 3.21 µM | TGI (OVCAR-5 ovarian): 9.22 µM | GI50 (KM12 colon): 7.54 µM | TGI (KM12 colon): 21.4 µM | GI50 (A498 renal): 15.5 µM | TGI (A498 renal): 30 µM | GI50 (MDA-MB-231 breast): 2.44 µM | TGI (MDA-MB-231 breast): 5.12 µM
